Molecules are shown by their SMILES. pEC50: −log10 of the molar value.

For the first test, the target named is T1, CD80-CD28 interaction (Homo sapiens, UniProt P33681).
T1 sequence (P33681 35-242 limits assumed): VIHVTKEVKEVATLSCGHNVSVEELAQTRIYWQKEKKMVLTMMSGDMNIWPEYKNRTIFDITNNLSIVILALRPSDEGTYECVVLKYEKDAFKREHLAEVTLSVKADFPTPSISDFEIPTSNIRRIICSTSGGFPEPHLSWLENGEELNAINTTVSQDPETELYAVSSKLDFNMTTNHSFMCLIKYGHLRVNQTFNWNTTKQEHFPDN
Nature of the test: Homogenous Time Resolved Fluorescence (HTRF) assay, cell free. The format is binding. To be noted: cell-free HTRF, compound concentration series 100 μM-1.7 nM, 4 hours at room temperature; read-out: Activity (EC50 in the HTRF assay). The procedure:
Homogenous Time Resolved Fluorescence Assay
The examples described above were tested in a cell free Homogenous Time Resolved Fluorescence (HTRF) assay to determine their activity as inhibitors of the CD80-CD28 interaction.
In the assay, europium and allophycocyanin (APC) are associated with CD28 and CD80 indirectly (through antibody linkers) to form a complex, which brings the europium and APC into close proximity to generate a signal. The complex comprises the following six proteins: fluorescent label 1, linker antibody 1, CD28 fusion protein, CD80 fusion protein, linker antibody 2, and fluorescent label 2. The table below describes these reagents in greater detail.
On formation of the complex, europium and APC are brought into proximity and a signal is generated.
Non-specific interaction was measured by substituting a mouse Fab fragment (C215) for the CD80 mouse Fab fragment fusion protein (1.9 μg/ml). The assay was carried out in black 384 well plates in a final volume of 30 μl. Assay buffer: 50 mM Tris-HCl, 150 mM NaCl pH7.8, containing 0.1% BSA (w/v) added just prior to use.
Compounds were added to the above reagents in a concentration series ranging between 100 μM-1.7 nM. The reaction was incubated for 4 hours at room temperature. Dual measurements were made using a Wallac Victor 1420 Multilabel Counter. First measurement: excitation 340 nm, emission 665 nm, delay 50 μs, window time 200 μs. second measurement: excitation 340 nm, emission 615 nm, delay 50 μs, window time 200 μs. Counts were automatically corrected for fluorescence crossover, quenching and background. The EC50 activities of compounds tested are recorded as: EC50:*=>10 μM,**=1-10 μM,***=<1 μM.
(TR-FRET usually uses a lanthanide donor and a delayed reading to cut background.)
For the compound `COCCNC(=O)c1ccc(-n2[nH]c3c(nnc4ccccc43)c2=O)cc1` [Example 9a], the pEC50 – broadly, the negative decadic logarithm of the EC50, by convention in mol/L – is 5.00 to 6.00.

In the case of `CN1CCN(CCCNC(=O)c2ccc(-n3[nH]c4c(nnc5ccccc54)c3=O)cc2)CC1` [Example 10], the pEC50 was > 6.00. Turning to `CN(C)CCNC(=O)c1ccc(-n2[nH]c3c(nnc4ccccc43)c2=O)cc1` [Example 11], the pEC50 was > 6.00. Consider `O=C(NCCN1CCOCC1)c1ccc(-n2[nH]c3c(nnc4ccccc43)c2=O)cc1` [Example 12], for which the pEC50 is > 6.00. The same measure, in the same setting: with `O=C(NCCCN1CCOCC1)c1ccc(-n2[nH]c3c(nnc4ccccc43)c2=O)cc1` [Example 13] the figure was > 6.00; with `CC(C)=CCC/C(C)=C/CNC(=O)c1ccc(-n2[nH]c3c(nnc4ccccc43)c2=O)cc1` [Example 14], < 5.00; with `O=C(Nc1ccccc1)c1ccc(-n2[nH]c3c(nnc4ccccc43)c2=O)cc1` [Example 15], 5.00 to 6.00. Still for that read-out and setting: with `Cc1ccc2[nH]cc(CCNC(=O)c3ccc(-n4[nH]c5c(nnc6ccccc65)c4=O)cc3)c2c1` [Example 16] the figure was < 5.00; with `CC(C)(C)OC(=O)NCCNC(=O)c1ccc(-n2[nH]c3c(nnc4ccccc43)c2=O)cc1` [Example 17], 5.00 to 6.00. As for `CN1CCC(NC(=O)c2ccc(-n3[nH]c4c(nnc5ccccc54)c3=O)cc2)CC1` [Example 18], the pEC50 was > 6.00. Still for that read-out and setting: the result for `CC(NC(=O)c1ccc(-n2[nH]c3c(nnc4ccccc43)c2=O)cc1)c1ccccc1` (centres unmarked) [Example 19] reads < 5.00; that for `O=C(NCCc1ccncc1)c1ccc(-n2[nH]c3c(nnc4ccccc43)c2=O)cc1` [Example 20], > 6.00; that for `O=C(NCc1ccc([N+](=O)[O-])cc1)c1ccc(-n2[nH]c3c(nnc4ccccc43)c2=O)cc1` [Example 21], 5.00 to 6.00.

In the case of `O=C(NCCCn1ccnc1)c1ccc(-n2[nH]c3c(nnc4ccccc43)c2=O)cc1` [Example 23], the pEC50 was > 6.00. On the same count and under the same terms, with `O=C(NC1CCCCCC1)c1ccc(-n2[nH]c3c(nnc4ccccc43)c2=O)cc1` [Example 24] the figure was 5.00 to 6.00; with `CCCCC(CC)CNC(=O)c1ccc(-n2[nH]c3c(nnc4ccccc43)c2=O)cc1` (centres unmarked) [Example 25], < 5.00.

As to `CC(C)CCCC(C)NC(=O)c1ccc(-n2[nH]c3c(nnc4ccccc43)c2=O)cc1` (centres unmarked) [Example 26], the negative logarithm of the EC50 (pEC50) was > 6.00. Same read-out and setting: with `CCCCCCC(C)NC(=O)c1ccc(-n2[nH]c3c(nnc4ccccc43)c2=O)cc1` (centres unmarked) [Example 27] the figure was < 5.00; with `C=C(C)C(=O)OCCNC(=O)c1ccc(-n2[nH]c3c(nnc4ccccc43)c2=O)cc1` [Example 28], 5.00 to 6.00. Still for that read-out and setting: with `CC(O)CCNC(=O)c1ccc(-n2[nH]c3c(nnc4ccccc43)c2=O)cc1` (centres unmarked) [Example 29] the figure was > 6.00; with `COc1ccc2[nH]cc(CCNC(=O)c3ccc(-n4[nH]c5c(nnc6ccccc65)c4=O)cc3)c2c1` [Example 31], 5.00 to 6.00. On the same count and under the same terms, the result for `CC1CCCCN1CCCNC(=O)c1ccc(-n2[nH]c3c(nnc4ccccc43)c2=O)cc1` (centres unmarked) [Example 32] reads > 6.00; that for `CC(C)C(C)NC(=O)c1ccc(-n2[nH]c3c(nnc4ccccc43)c2=O)cc1` (centres unmarked) [Example 33], 5.00 to 6.00. Consider `CCOC(=O)CC(C)NC(=O)c1ccc(-n2[nH]c3c(nnc4ccccc43)c2=O)cc1` (centres unmarked) [Example 34], for which the pEC50 is 5.00 to 6.00. The same measure, in the same setting: with `O=C(NCCc1cnc[nH]1)c1ccc(-n2[nH]c3c(nnc4ccccc43)c2=O)cc1` [Example 35] the figure was 5.00 to 6.00. Still for that read-out and setting: the result for `O=C(NCCN1CCNC1=O)c1ccc(-n2[nH]c3c(nnc4ccccc43)c2=O)cc1` [Example 36] reads < 5.00. Same read-out and setting: with `O=C(NCCN1CCN(Cc2ccccc2)CC1)c1ccc(-n2[nH]c3c(nnc4ccccc43)c2=O)cc1` [Example 37] the figure was > 6.00; with `CC(C)(C)C1CCC(NC(=O)c2ccc(-n3[nH]c4c(nnc5ccccc54)c3=O)cc2)CC1` (centres unmarked) [Example 38], < 5.00. As for `O=C(NCc1cccc([N+](=O)[O-])c1)c1ccc(-n2[nH]c3c(nnc4ccccc43)c2=O)cc1` [Example 39], the pEC50 was 5.00 to 6.00.

With `O=C(Nc1ccc(N2CCOCC2)cc1)c1ccc(-n2[nH]c3c(nnc4ccccc43)c2=O)cc1` [Example 40], the pEC50 was 5.00 to 6.00. On to `O=C(NCCCc1ccccc1)c1ccc(-n2[nH]c3c(nnc4ccccc43)c2=O)cc1` [Example 41], for which the pEC50 was 5.00 to 6.00.

In the case of `O=C(NCCCNC(=O)c1ccc(-n2[nH]c3c(nnc4ccccc43)c2=O)cc1)OCc1ccccc1` [Example 42], the pEC50 was 5.00 to 6.00. With `CCCCCC(C)NC(=O)c1ccc(-n2[nH]c3c(nnc4ccccc43)c2=O)cc1` (centres unmarked) [Example 43], the pEC50 is 5.00 to 6.00. Still for that read-out and setting: with `O=C(NC1CCCC1OCc1ccccc1)c1ccc(-n2[nH]c3c(nnc4ccccc43)c2=O)cc1` (centres unmarked) [Example 44] the figure was < 5.00; with `CCOC(CNC(=O)c1ccc(-n2[nH]c3c(nnc4ccccc43)c2=O)cc1)OCC` [Example 45], 5.00 to 6.00. On the same count and under the same terms, with `CCNC(=O)c1ccc(-n2[nH]c3c(nnc4ccccc43)c2=O)cc1` [Example 46] the figure was > 6.00. The same measure, in the same setting: with `O=C(NCCNc1ccccc1)c1ccc(-n2[nH]c3c(nnc4ccccc43)c2=O)cc1` [Example 47] the figure was > 6.00. As for `CNCCNC(=O)c1ccc(-n2[nH]c3c(nnc4ccccc43)c2=O)cc1` [Example 48], the pEC50 was > 6.00.

As for `CCNCCNC(=O)c1ccc(-n2[nH]c3c(nnc4ccccc43)c2=O)cc1` [Example 49], the pEC50 is > 6.00. Still for that read-out and setting: the result for `O=C(NCCOCCO)c1ccc(-n2[nH]c3c(nnc4ccccc43)c2=O)cc1` [Example 50] reads 5.00 to 6.00. Same read-out and setting: with `O=C(NCCO)c1ccc(-n2[nH]c3c(nnc4ccccc43)c2=O)cc1` [Example 51] the figure was > 6.00; with `CNCCCNC(=O)c1ccc(-n2[nH]c3c(nnc4ccccc43)c2=O)cc1` [Example 52], > 6.00; with `NCCCCNC(=O)c1ccc(-n2[nH]c3c(nnc4ccccc43)c2=O)cc1` [Example 54], > 6.00. Still for that read-out and setting: with `CC(C)CC(C)NC(=O)c1ccc(-n2[nH]c3c(nnc4ccccc43)c2=O)cc1` (centres unmarked) [Example 55] the figure was > 6.00; with `O=C(NCc1ccc(F)cc1)c1ccc(-n2[nH]c3c(nnc4ccccc43)c2=O)cc1` [Example 56], 5.00 to 6.00; with `O=C(NC1CCCCC1)c1ccc(-n2[nH]c3c(nnc4ccccc43)c2=O)cc1` [Example 57], 5.00 to 6.00. For `CCCCN(CCCC)CCCNC(=O)c1ccc(-n2[nH]c3c(nnc4ccccc43)c2=O)cc1` [Example 58], the pEC50 was > 6.00.

Turning to `O=C(NC1CCCCCCCCCCC1)c1ccc(-n2[nH]c3c(nnc4ccccc43)c2=O)cc1` [Example 59], the pEC50 was < 5.00. The same measure, in the same setting: the result for `CCN(CC)CCNC(=O)c1ccc(-n2[nH]c3c(nnc4ccccc43)c2=O)cc1` [Example 60] reads > 6.00. On the same count and under the same terms, with `CN1CCCC1CCNC(=O)c1ccc(-n2[nH]c3c(nnc4ccccc43)c2=O)cc1` (centres unmarked) [Example 61] the figure was > 6.00. As to `CC1CCC(NC(=O)c2ccc(-n3[nH]c4c(nnc5ccccc54)c3=O)cc2)CC1` (centres unmarked) [Example 62], the pEC50 was 5.00 to 6.00. The same measure, in the same setting: the result for `O=C(NCCOc1ccccc1)c1ccc(-n2[nH]c3c(nnc4ccccc43)c2=O)cc1` [Example 63] reads 5.00 to 6.00; that for `O=C(NCc1ccc(OC(F)(F)F)cc1)c1ccc(-n2[nH]c3c(nnc4ccccc43)c2=O)cc1` [Example 64], 5.00 to 6.00. As to `O=C(NCCNc1cccc2ccccc12)c1ccc(-n2[nH]c3c(nnc4ccccc43)c2=O)cc1` [Example 65], the pEC50 is 5.00 to 6.00. As to `CCOC(=O)C(C)NC(=O)c1ccc(-n2[nH]c3c(nnc4ccccc43)c2=O)cc1` (centres unmarked) [Example 66], the pEC50 was 5.00 to 6.00.

The same test, now with this note: inhibition of the CD80-CD28 interaction, 4 hours at room temperature; read-out: EC50 activity in the HTRF assay.
On to `O=C(O)c1ccc(-n2[nH]c3c(nnc4ccccc43)c2=O)cc1` [Example 1, 4-(3-oxo-1,3-dihydro-2H-pyrazolo[4,3-c]cinnolin-2-yl)benzoic acid], for which the pEC50 was < 5.00. On to `O=C(O)c1ccc(-n2[nH]c3c(nnc4c(F)cccc43)c2=O)cc1` [Example 5, 4-(6-fluoro-3-oxo-1,3-dihydro-2H-pyrazolo[4,3-c]cinnolin-2-yl)benzoic acid], for which the pEC50 is < 5.00.

`CN(C)CCCNC(=O)Nc1ccc(-n2[nH]c3c(nnc4ccccc43)c2=O)cc1` [Example 8, N-[3-(dimethylamino)propyl]-N′-[4-(3-oxo-1,3-dihydro-2H-pyrazolo[4,3-c]cinnolin-2-yl)phenyl]urea]: the pEC50 was > 6.00.

For `CCOC(=O)c1ccc(-n2[nH]c3c(nnc4ccccc43)c2=O)cc1` [Example 9, 4-(3-oxo-1,3-dihydro-2H-pyrazolo[4,3-c]cinnolin-2-yl)benzoic acid ethyl ester], the pEC50 is 5.00 to 6.00.
